Measured values as given in patent publication US20240101592A1, “COMPOSITIONS AND METHODS FOR TREATING CNS DISORDERS” (Sage Therapeutics, Inc., priority 2020, published 2024).
pIC50: −log10 of the molar value.

Each compound was assayed against GABAA receptor ([35S]-TBPS binding, rat brain cortical membranes) (assay: Steroid inhibition of [35S]-TBPS binding). Conditions: 3 nM [35S]-TBPS, in the presence of 5 mM GABA, 90 min at room temp.
Experimental: Steroid Inhibition of TBPS Binding
[^35S]-t-Butylbicyclophosphorothionate (TBPS) binding assays using rat brain cortical membranes in the presence of 5 mM GABA has been described (Gee et al, J. Pharmacol. Exp. Ther. 1987, 241, 346-353; Hawkinson et al, Mol. Pharmacol. 1994, 46, 977-985; Lewin, A. H et al., Mol. Pharmacol. 1989, 35, 189-194).
Briefly, cortices are rapidly removed following decapitation of carbon dioxide-anesthetized Sprague-Dawley rats (200-250 g). The cortices are homogenized in 10 volumes of ice-cold 0.32 M sucrose using a glass/teflon homogenizer and centrifuged at 1500×g for 10 min at 4° C. The resultant supernatants are centrifuged at 10,000×g for 20 min at 4° C. to obtain the P2 pellets. The P2 pellets are resuspended in 200 mM NaCl/50 mM Na—K phosphate pH 7.4 buffer and centrifuged at 10,000×g for 10 min at 4° C. This washing procedure is repeated twice and the pellets are resuspended in 10 volumes of buffer. Aliquots ([…]) of the membrane suspensions are incubated with 3 nM [^35S]-TBPS and […] aliquots of test drug dissolved in dimethyl sulfoxide (DMSO) (final 0.5%) in the presence of 5 mM GABA. The incubation is brought to a final volume of 1.0 mL with buffer. Nonspecific binding is determined in the presence of […] and ranged from 15 to 25%. Following a 90 min incubation at room temp, the assays are terminated by filtration through glass fiber filters (Schleicher and Schuell No. 32) using a cell harvester (Brandel) and rinsed three times with ice-cold buffer. Filter bound radioactivity is measured by liquid scintillation spectrometry. Non-linear curve fitting of the overall data for each drug averaged for each concentration is done using Prism (GraphPad). […] The concentration of test compound producing 50% inhibition (IC50) of specific binding and the maximal extent of inhibition (Imax) are determined for the individual experiments with the same model used for the overall data and then the means±SEM.s of the individual experiments are calculated.
Various compounds are or can be screened to determine their potential as modulators of [^35S]-TBPS binding in vitro. These assays are or can be performed in accordance with the above.

First: Cc1nnnn1C[C@@H]1C[C@H]1[C@H]1CC[C@H]2[C@@H]3CC[C@@H]4C[C@](C)(O)CC[C@@H]4[C@H]3CC[C@]12C [Compound No. 27, (3R,5R,8R,9R,10S,13S,14S,17R)-3,13-dimethyl-17-((1S,2R)-2-((5-methyl-1H-tetrazol-1-yl)methyl)cyclopropyl)hexadecahydro-1H-cyclopenta[a]phenanthren-3-ol]
Second: Cc1nnnn1C[C@H]1C[C@@H]1[C@H]1CC[C@H]2[C@@H]3CC[C@@H]4C[C@](C)(O)CC[C@@H]4[C@H]3CC[C@]12C [Compound No. 26, (3R,5R,8R,9R,10S,13S,14S,17R)-3,13-dimethyl-17-((1R,2S)-2-((5-methyl-1H-tetrazol-1-yl)methyl)cyclopropyl)hexadecahydro-1H-cyclopenta[a]phenanthren-3-ol]
The pIC50 of the first is lower: 6.00 to 7.00 for the first, over 7.00 for the second. The second is the more potent here.

`C[C@@]1(O)CC[C@H]2[C@H](CC[C@@H]3[C@@H]2CC[C@@]2(C)[C@H]3[C@@H]3C[C@@H]3[C@@H]2[C@](C)(O)Cn2cc(C#N)cn2)C1` (single isomer, unassigned) [Compound No. 12] and `C[C@@]1(O)CC[C@H]2[C@H](CC[C@@H]3[C@@H]2CC[C@@]2(C)[C@H]3C[C@H]3C[C@H]3[C@@H]2[C@@](C)(O)Cn2cc(C#N)cn2)C1` [Compound No. 3] cannot be ordered by pIC50: over 7.00 for the first, over 7.00 for the second.

`C[C@@]1(O)CC[C@H]2[C@H](CC[C@@H]3[C@@H]2CC[C@@]2(C)[C@H]3[C@@H]3C[C@@H]3C[C@@H]2C(=O)Cn2cc(C#N)cn2)C1` [Compound No. 8, 1-(2-((1S,2aR,3aR,3bS,3cR,5aR,7R,9aS,9bR,11aS)-7-hydroxy-7,11a-dimethyloctadecahydro-1H-cyclopropa[c]chrysen-1-yl)-2-oxoethyl)-1H-pyrazole-4-carbonitrile] was tested, and the pIC50 was over 7.00.
